According to the NIST ThermoML archive (doi:10.1016/j.fluid.2017.06.019):
Numbers after ± are expanded uncertainties.

Conditions: 368.46 K, Liquid, Coaxial cylinder method

CCC [propane]
thermal conductivity (4166 kPa): 0.1166 ± 0.0098 W/m/K | thermal conductivity (4167 kPa): 0.1142 ± 0.0097 W/m/K | thermal conductivity (4168 kPa): 0.112 ± 0.0095 W/m/K | thermal conductivity (4169 kPa): 0.1098 ± 0.0094 W/m/K | thermal conductivity (4170 kPa): 0.1079 ± 0.0092 W/m/K | thermal conductivity (4171 kPa): 0.1059 ± 0.0092 W/m/K | thermal conductivity (4172 kPa): 0.1041 ± 0.009 W/m/K | thermal conductivity (4173 kPa): 0.1023 ± 0.0089 W/m/K | thermal conductivity (4174 kPa): 0.1007 ± 0.0088 W/m/K | thermal conductivity (4175 kPa): 0.09915 ± 0.0087 W/m/K | thermal conductivity (4176 kPa): 0.09767 ± 0.0086 W/m/K | thermal conductivity (4177 kPa): 0.09622 ± 0.0085 W/m/K | thermal conductivity (4178 kPa): 0.09487 ± 0.0084 W/m/K | thermal conductivity (4179 kPa): 0.09359 ± 0.0083 W/m/K | thermal conductivity (4180 kPa): 0.0923 ± 0.0082 W/m/K | thermal conductivity (4181 kPa): 0.09113 ± 0.0081 W/m/K | thermal conductivity (4182 kPa): 0.09007 ± 0.0077 W/m/K | thermal conductivity (4183 kPa): 0.08899 ± 0.0075 W/m/K | thermal conductivity (4184 kPa): 0.08793 ± 0.0072 W/m/K | thermal conductivity (4185 kPa): 0.08689 ± 0.007 W/m/K | thermal conductivity (4186 kPa): 0.08599 ± 0.0068 W/m/K | thermal conductivity (4187 kPa): 0.08507 ± 0.0067 W/m/K | thermal conductivity (4188 kPa): 0.08424 ± 0.0066 W/m/K | thermal conductivity (4189 kPa): 0.08337 ± 0.0065 W/m/K | thermal conductivity (4190 kPa): 0.08257 ± 0.0064 W/m/K | thermal conductivity (4191 kPa): 0.08179 ± 0.0064 W/m/K | thermal conductivity (4192 kPa): 0.08112 ± 0.0063 W/m/K | thermal conductivity (4193 kPa): 0.08042 ± 0.0062 W/m/K | thermal conductivity (4194 kPa): 0.07971 ± 0.0061 W/m/K | thermal conductivity (4195 kPa): 0.0791 ± 0.0061 W/m/K | thermal conductivity (4196 kPa): 0.0785 ± 0.0058 W/m/K | thermal conductivity (4197 kPa): 0.07791 ± 0.0058 W/m/K | thermal conductivity (4198 kPa): 0.07733 ± 0.0056 W/m/K | thermal conductivity (4199 kPa): 0.07676 ± 0.0056 W/m/K | thermal conductivity (4200 kPa): 0.07619 ± 0.0054 W/m/K | thermal conductivity (4201 kPa): 0.07577 ± 0.0054 W/m/K | thermal conductivity (4202 kPa): 0.07536 ± 0.0053 W/m/K | thermal conductivity (4203 kPa): 0.07481 ± 0.0052 W/m/K | thermal conductivity (4204 kPa): 0.07441 ± 0.0051 W/m/K | thermal conductivity (4205 kPa): 0.07401 ± 0.0051 W/m/K | thermal conductivity (4206 kPa): 0.07348 ± 0.005 W/m/K | thermal conductivity (4207 kPa): 0.07318 ± 0.005 W/m/K | thermal conductivity (4208 kPa): 0.07282 ± 0.0049 W/m/K | thermal conductivity (4209 kPa): 0.07244 ± 0.0049 W/m/K | thermal conductivity (4210 kPa): 0.07206 ± 0.0048 W/m/K | thermal conductivity (4211 kPa): 0.07181 ± 0.0048 W/m/K | thermal conductivity (4212 kPa): 0.07151 ± 0.0048 W/m/K | thermal conductivity (4213 kPa): 0.07116 ± 0.0047 W/m/K | thermal conductivity (4214 kPa): 0.07087 ± 0.0047 W/m/K | thermal conductivity (4215 kPa): 0.07063 ± 0.0047 W/m/K | thermal conductivity (4216 kPa): 0.07039 ± 0.0047 W/m/K | thermal conductivity (4217 kPa): 0.0701 ± 0.0046 W/m/K | thermal conductivity (4218 kPa): 0.06986 ± 0.0046 W/m/K | thermal conductivity (4219 kPa): 0.06962 ± 0.0046 W/m/K | thermal conductivity (4220 kPa): 0.06939 ± 0.0046 W/m/K | thermal conductivity (4221 kPa): 0.0692 ± 0.0046 W/m/K | thermal conductivity (4222 kPa): 0.06897 ± 0.0045 W/m/K | thermal conductivity (4223 kPa): 0.06874 ± 0.0045 W/m/K | thermal conductivity (4224 kPa): 0.0686 ± 0.0045 W/m/K | thermal conductivity (4225 kPa): 0.0684 ± 0.0045 W/m/K | thermal conductivity (4226 kPa): 0.06824 ± 0.0045 W/m/K | thermal conductivity (4227 kPa): 0.06804 ± 0.0044 W/m/K | thermal conductivity (4228 kPa): 0.0679 ± 0.0044 W/m/K | thermal conductivity (4229 kPa): 0.06777 ± 0.0044 W/m/K | thermal conductivity (4230 kPa): 0.06761 ± 0.0044 W/m/K | thermal conductivity (4231 kPa): 0.06749 ± 0.0044 W/m/K | thermal conductivity (4232 kPa): 0.06733 ± 0.0044 W/m/K | thermal conductivity (4233 kPa): 0.06722 ± 0.0044 W/m/K | thermal conductivity (4234 kPa): 0.06709 ± 0.0044 W/m/K | thermal conductivity (4235 kPa): 0.06698 ± 0.0044 W/m/K | thermal conductivity (4236 kPa): 0.06684 ± 0.0043 W/m/K | thermal conductivity (4237 kPa): 0.06677 ± 0.0043 W/m/K | thermal conductivity (4238 kPa): 0.06652 ± 0.0043 W/m/K | thermal conductivity (4239 kPa): 0.06652 ± 0.0043 W/m/K | thermal conductivity (4240 kPa): 0.06647 ± 0.0043 W/m/K | thermal conductivity (4241 kPa): 0.06643 ± 0.0043 W/m/K | thermal conductivity (4242 kPa): 0.06641 ± 0.0043 W/m/K | thermal conductivity (4244 kPa): 0.06637 ± 0.0043 W/m/K | thermal conductivity (4246 kPa): 0.0663 ± 0.0043 W/m/K | thermal conductivity (4248 kPa): 0.06624 ± 0.0043 W/m/K | thermal conductivity (4250 kPa): 0.06619 ± 0.0043 W/m/K | thermal conductivity (4252 kPa): 0.06614 ± 0.0043 W/m/K | thermal conductivity (4254 kPa): 0.06611 ± 0.0043 W/m/K | thermal conductivity (4256 kPa): 0.06607 ± 0.0043 W/m/K | thermal conductivity (4258 kPa): 0.066 ± 0.0043 W/m/K | thermal conductivity (4260 kPa): 0.06598 ± 0.0043 W/m/K | thermal conductivity (4262 kPa): 0.06591 ± 0.0043 W/m/K | thermal conductivity (4264 kPa): 0.06587 ± 0.0043 W/m/K | thermal conductivity (4266 kPa): 0.06583 ± 0.0043 W/m/K | thermal conductivity (4268 kPa): 0.06578 ± 0.0043 W/m/K | thermal conductivity (4270 kPa): 0.06574 ± 0.0043 W/m/K | thermal conductivity (4272 kPa): 0.06572 ± 0.0043 W/m/K | thermal conductivity (4274 kPa): 0.06568 ± 0.0043 W/m/K | thermal conductivity (4276 kPa): 0.06564 ± 0.0043 W/m/K | thermal conductivity (4278 kPa): 0.06564 ± 0.0043 W/m/K | thermal conductivity (4280 kPa): 0.06559 ± 0.0043 W/m/K | thermal conductivity (4282 kPa): 0.06555 ± 0.0043 W/m/K | thermal conductivity (4284 kPa): 0.0655 ± 0.0043 W/m/K | thermal conductivity (4286 kPa): 0.0655 ± 0.0043 W/m/K | thermal conductivity (4288 kPa): 0.06543 ± 0.0043 W/m/K | thermal conductivity (4290 kPa): 0.06539 ± 0.0043 W/m/K | thermal conductivity (4292 kPa): 0.06535 ± 0.0043 W/m/K | thermal conductivity (4294 kPa): 0.06533 ± 0.0043 W/m/K | thermal conductivity (4296 kPa): 0.06529 ± 0.0042 W/m/K | thermal conductivity (4298 kPa): 0.06529 ± 0.0042 W/m/K | thermal conductivity (4300 kPa): 0.06527 ± 0.0042 W/m/K | thermal conductivity (4302 kPa): 0.06525 ± 0.0042 W/m/K | thermal conductivity (4304 kPa): 0.06521 ± 0.0042 W/m/K | thermal conductivity (4306 kPa): 0.06516 ± 0.0042 W/m/K | thermal conductivity (4308 kPa): 0.06514 ± 0.0042 W/m/K | thermal conductivity (4310 kPa): 0.06514 ± 0.0042 W/m/K
